Paper PMC9856672, “SGC-CAMKK2-1: A Chemical Probe for CAMKK2” (Cells, 2023)

What was measured:
[1] = biological target: T1, PAK2 (Homo sapiens, UniProt Q13177); assay: KINOMEscan 1 μM, PAK2; format: binding; details: 1000 nM; Entrez PAK2; read-out: Percent Control
T1 construct: purchased Eurofins DiscoverX KINOMEscan
Source text: (§1) Supplement cells-12-00287-s001.zip/File S2. KinomeScan data for the CAMKK2 probe and negative control.xlsx, sheet "SGC-CAMKK2-1" | column: Percent Control

[2] = biological target: T2, CAMK1B (Homo sapiens, UniProt Q6P2M8); assay: KINOMEscan 1 μM, CAMK1B; format: binding; details: 1000 nM; Entrez PNCK; read-out: Percent Control
T2 construct: purchased Eurofins DiscoverX KINOMEscan
Source text: as §1

[3] = biological target: T3, BLK (Homo sapiens, UniProt P51451); assay: KINOMEscan 1 μM, BLK; format: binding; details: 1000 nM; Entrez BLK; read-out: Percent Control
T3 construct: purchased Eurofins DiscoverX KINOMEscan
Source text: as §1

[4] = biological target: T4, MAK (Homo sapiens, UniProt P20794); assay: KINOMEscan 1 μM, MAK; format: binding; details: 1000 nM; Entrez MAK; read-out: Percent Control
T4 construct: purchased Eurofins DiscoverX KINOMEscan
Source text: as §1

[5] = biological target: T5, GAK (Homo sapiens, UniProt O14976); assay: KINOMEscan 1 μM, GAK; format: binding; details: 1000 nM; Entrez GAK; read-out: Percent Control
T5 construct: purchased Eurofins DiscoverX KINOMEscan
Source text: as §1

[6] = biological target: T6, ERK2 (Homo sapiens, UniProt P28482); assay: KINOMEscan 1 μM, ERK2; format: binding; details: 1000 nM; Entrez MAPK1; read-out: Percent Control
T6 construct: purchased Eurofins DiscoverX KINOMEscan
Source text: as §1

[7] = biological target: T7, PAK1 (Homo sapiens, UniProt Q13153); assay: KINOMEscan 1 μM, PAK1; format: binding; details: 1000 nM; Entrez PAK1; read-out: Percent Control
T7 construct: purchased Eurofins DiscoverX KINOMEscan
Source text: as §1

[8] = biological target: T8, MAP3K15 (Homo sapiens, UniProt Q6ZN16); assay: KINOMEscan 1 μM, MAP3K15; format: binding; details: 1000 nM; Entrez MAP3K15; read-out: Percent Control
T8 construct: purchased Eurofins DiscoverX KINOMEscan
Source text: as §1

[9] = biological target: T9, DMPK (Homo sapiens, UniProt Q09013); assay: KINOMEscan 1 μM, DMPK; format: binding; details: 1000 nM; Entrez DMPK; read-out: Percent Control
T9 construct: purchased Eurofins DiscoverX KINOMEscan
Source text: as §1

[10] = biological target: T10, ABL1-phosphorylated (Homo sapiens, UniProt P00519); assay: KINOMEscan 1 μM, ABL1-phosphorylated; format: binding; details: 1000 nM; Entrez ABL1; read-out: Percent Control
T10 construct: purchased Eurofins DiscoverX KINOMEscan
Source text: as §1

[11] = biological target: T11, ARK5 (Homo sapiens, UniProt O60285); assay: KINOMEscan 1 μM, ARK5; format: binding; details: 1000 nM; Entrez NUAK1; read-out: Percent Control
T11 construct: purchased Eurofins DiscoverX KINOMEscan
Source text: as §1

[12] = biological target: T12, BUB1 (Homo sapiens, UniProt O43683); assay: KINOMEscan 1 μM, BUB1; format: binding; details: 1000 nM; Entrez BUB1; read-out: Percent Control
T12 construct: purchased Eurofins DiscoverX KINOMEscan
Source text: as §1

[13] = biological target: T13, MEK4 (Homo sapiens, UniProt P45985); assay: KINOMEscan 1 μM, MEK4; format: binding; details: 1000 nM; Entrez MAP2K4; read-out: Percent Control
T13 construct: purchased Eurofins DiscoverX KINOMEscan
Source text: as §1

[14] = biological target: T14, NDR2 (Homo sapiens, UniProt Q9Y2H1); assay: KINOMEscan 1 μM, NDR2; format: binding; details: 1000 nM; Entrez STK38L; read-out: Percent Control
T14 construct: purchased Eurofins DiscoverX KINOMEscan
Source text: as §1

[15] = biological target: T15, NEK11 (Homo sapiens, UniProt Q8NG66); assay: KINOMEscan 1 μM, NEK11; format: binding; details: 1000 nM; Entrez NEK11; read-out: Percent Control
T15 construct: purchased Eurofins DiscoverX KINOMEscan
Source text: as §1

[16] = biological target: T16, PIK4CB (Homo sapiens, UniProt Q9UBF8); assay: DiscoverX KINOMEscan binding assay at 1 μM, PIK4CB; details: PIK4CB (PI4KB); Compound Concentration 1000 nM; read-out: Percent Control
T16 construct: purchased Eurofins DiscoverX KINOMEscan
Source text: as §1

[17] = biological target: T17, RIPK5 (Homo sapiens, UniProt Q6XUX3); assay: DiscoverX KINOMEscan binding assay at 1 μM, RIPK5; details: RIPK5 (DSTYK); Compound Concentration 1000 nM; read-out: Percent Control
T17 construct: purchased Eurofins DiscoverX KINOMEscan
Source text: as §1

[18] = biological target: T18, SRPK2 (Homo sapiens, UniProt P78362); assay: DiscoverX KINOMEscan binding assay at 1 μM, SRPK2; details: Compound Concentration 1000 nM, read-out: Percent Control
T18 construct: purchased Eurofins DiscoverX KINOMEscan
Source text: as §1

[19] = biological target: T19, MEK6 (Homo sapiens, UniProt P52564); assay: KINOMEscan at 1 μM, MEK6; format: binding; details: 1000 nM, read-out: Percent Control
T19 construct: purchased Eurofins DiscoverX KINOMEscan
Source text: (§2) Supplement cells-12-00287-s001.zip/File S2. KinomeScan data for the CAMKK2 probe and negative control.xlsx, sheet "SGC-CAMKK2-1N" | column: Percent Control

[20] = biological target: T20, ASK2 (Homo sapiens, UniProt O95382); assay: KINOMEscan at 1 μM, ASK2; format: binding; details: 1000 nM, read-out: Percent Control
T20 construct: purchased Eurofins DiscoverX KINOMEscan
Source text: as §2

[21] = biological target: T21, ABL1-nonphosphorylated (Homo sapiens, UniProt P00519); assay: KINOMEscan at 1 μM, ABL1-nonphosphorylated; format: binding; details: 1000 nM, read-out: Percent Control
T21 construct: purchased Eurofins DiscoverX KINOMEscan
Source text: as §2

[22] = biological target: T22, NEK4 (Homo sapiens, UniProt P51957); assay: KINOMEscan at 1 μM, NEK4; format: binding; details: 1000 nM, read-out: Percent Control
T22 construct: purchased Eurofins DiscoverX KINOMEscan
Source text: as §2

[23] = biological target: T23, PRKX (Homo sapiens, UniProt P51817); assay: KINOMEscan at 1 μM, PRKX; format: binding; details: 1000 nM, read-out: Percent Control
T23 construct: purchased Eurofins DiscoverX KINOMEscan
Source text: as §2

[24] = biological target: T24, JNK1 (Homo sapiens, UniProt P45983); assay: KINOMEscan at 1 μM, JNK1; format: binding; details: 1000 nM, read-out: Percent Control
T24 construct: purchased Eurofins DiscoverX KINOMEscan
Source text: as §2

[25] = biological target: T25, LATS2 (Homo sapiens, UniProt Q9NRM7); assay: KINOMEscan at 1 μM, LATS2; format: binding; details: 1000 nM, read-out: Percent Control
T25 construct: purchased Eurofins DiscoverX KINOMEscan
Source text: as §2

[26] = biological target: T26, YES (Homo sapiens, UniProt P07947); assay: KINOMEscan at 1 μM, YES; format: binding; details: 1000 nM, read-out: Percent Control
T26 construct: purchased Eurofins DiscoverX KINOMEscan
Source text: as §2

[27] = biological target: T27, RET(V804L) (Homo sapiens, UniProt P07949, V804L); assay: KINOMEscan at 1 μM, RET(V804L); format: binding; details: 1000 nM, read-out: Percent Control
T27 construct: purchased Eurofins DiscoverX KINOMEscan
Source text: as §2

[28] = biological target: T28, PLK3 (Homo sapiens, UniProt Q9H4B4); assay: KINOMEscan at 1 μM, PLK3; format: binding; details: 1000 nM, read-out: Percent Control
T28 construct: purchased Eurofins DiscoverX KINOMEscan
Source text: as §2

[29] = biological target: T29, CLK4 (Homo sapiens, UniProt Q9HAZ1); assay: KINOMEscan at 1 μM, CLK4; format: binding; details: 1000 nM, read-out: Percent Control
T29 construct: purchased Eurofins DiscoverX KINOMEscan
Source text: as §2

[30] = biological target: T30, SRC (Homo sapiens, UniProt P12931); assay: KINOMEscan at 1 μM, SRC; format: binding; details: 1000 nM, read-out: Percent Control
T30 construct: purchased Eurofins DiscoverX KINOMEscan
Source text: as §2

[31] = biological target: T31, JNK3 (Homo sapiens, UniProt P53779); assay: KINOMEscan binding assay at 1 μM, JNK3; details: Compound Concentration 1000 nM; read-out: Percent Control
T31 construct: purchased Eurofins DiscoverX KINOMEscan
Source text: as §2

[32] = biological target: T32, MAPKAPK5 (Homo sapiens, UniProt Q8IW41); assay: KINOMEscan binding assay at 1 μM, MAPKAPK5; details: Compound Concentration 1000 nM; read-out: Percent Control
T32 construct: purchased Eurofins DiscoverX KINOMEscan
Source text: as §2

[33] = biological target: T33, PFCDPK1(P.falciparum) (Plasmodium falciparum, UniProt P62344); assay: KINOMEscan binding assay at 1 μM, PFCDPK1(P.falciparum); details: Compound Concentration 1000 nM; read-out: Percent Control
T33 construct: purchased Eurofins DiscoverX KINOMEscan
Source text: as §2

[34] = biological target: T34, YANK2 (Homo sapiens, UniProt Q9NY57); assay: KINOMEscan binding assay at 1 μM, YANK2; details: Compound Concentration 1000 nM; read-out: Percent Control
T34 construct: purchased Eurofins DiscoverX KINOMEscan
Source text: as §2

T28 sequence (Q9H4B4 whole entry): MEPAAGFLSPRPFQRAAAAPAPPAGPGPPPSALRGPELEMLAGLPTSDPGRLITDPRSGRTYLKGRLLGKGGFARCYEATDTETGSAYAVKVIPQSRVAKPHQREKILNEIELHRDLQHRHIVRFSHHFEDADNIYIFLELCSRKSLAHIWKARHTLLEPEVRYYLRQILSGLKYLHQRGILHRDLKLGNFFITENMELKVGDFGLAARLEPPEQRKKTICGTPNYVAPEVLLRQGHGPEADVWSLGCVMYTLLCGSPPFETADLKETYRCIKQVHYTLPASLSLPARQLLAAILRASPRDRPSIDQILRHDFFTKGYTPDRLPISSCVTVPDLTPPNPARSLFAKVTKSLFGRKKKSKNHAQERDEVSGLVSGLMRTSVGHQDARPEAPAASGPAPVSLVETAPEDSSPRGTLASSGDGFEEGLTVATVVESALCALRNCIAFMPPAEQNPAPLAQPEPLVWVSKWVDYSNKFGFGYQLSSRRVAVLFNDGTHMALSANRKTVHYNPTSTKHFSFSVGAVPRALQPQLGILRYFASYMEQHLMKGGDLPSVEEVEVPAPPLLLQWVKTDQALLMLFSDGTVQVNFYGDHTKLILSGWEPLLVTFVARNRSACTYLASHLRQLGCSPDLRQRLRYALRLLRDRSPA
T11 sequence (O60285 whole entry): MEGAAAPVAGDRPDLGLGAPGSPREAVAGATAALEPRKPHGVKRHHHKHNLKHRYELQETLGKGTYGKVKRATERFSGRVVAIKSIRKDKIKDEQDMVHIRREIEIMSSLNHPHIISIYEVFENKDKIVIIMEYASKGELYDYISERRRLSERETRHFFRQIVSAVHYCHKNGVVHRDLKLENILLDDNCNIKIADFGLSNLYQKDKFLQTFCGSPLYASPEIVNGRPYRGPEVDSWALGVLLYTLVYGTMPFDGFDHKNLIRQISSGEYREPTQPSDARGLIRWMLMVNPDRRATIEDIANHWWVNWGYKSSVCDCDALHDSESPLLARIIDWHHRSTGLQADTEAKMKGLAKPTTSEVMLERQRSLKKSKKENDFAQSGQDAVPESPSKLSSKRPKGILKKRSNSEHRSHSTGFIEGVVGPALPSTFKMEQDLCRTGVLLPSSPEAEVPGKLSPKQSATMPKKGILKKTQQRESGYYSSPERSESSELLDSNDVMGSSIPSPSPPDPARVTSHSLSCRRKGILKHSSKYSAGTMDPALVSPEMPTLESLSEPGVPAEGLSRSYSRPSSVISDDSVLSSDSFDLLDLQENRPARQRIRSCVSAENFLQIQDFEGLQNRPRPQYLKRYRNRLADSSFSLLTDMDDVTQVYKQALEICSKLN
T9 sequence (Q09013 whole entry): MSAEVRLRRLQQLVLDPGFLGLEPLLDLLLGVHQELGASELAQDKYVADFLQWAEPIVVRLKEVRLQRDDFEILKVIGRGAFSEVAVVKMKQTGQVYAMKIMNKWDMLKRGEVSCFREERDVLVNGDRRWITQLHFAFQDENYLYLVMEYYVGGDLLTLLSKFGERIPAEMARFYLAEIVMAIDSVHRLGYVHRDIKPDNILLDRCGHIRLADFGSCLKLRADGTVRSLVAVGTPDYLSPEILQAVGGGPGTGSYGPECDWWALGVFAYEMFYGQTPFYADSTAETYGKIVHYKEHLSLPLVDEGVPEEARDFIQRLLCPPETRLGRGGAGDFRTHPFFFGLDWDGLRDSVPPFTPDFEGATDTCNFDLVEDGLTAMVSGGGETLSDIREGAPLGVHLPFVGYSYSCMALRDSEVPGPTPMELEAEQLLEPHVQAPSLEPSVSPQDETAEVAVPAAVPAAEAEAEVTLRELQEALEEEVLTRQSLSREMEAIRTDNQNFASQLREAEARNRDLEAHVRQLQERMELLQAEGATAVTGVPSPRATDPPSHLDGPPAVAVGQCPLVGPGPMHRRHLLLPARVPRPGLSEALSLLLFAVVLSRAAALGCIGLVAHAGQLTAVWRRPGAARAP
T25 sequence (Q9NRM7 whole entry): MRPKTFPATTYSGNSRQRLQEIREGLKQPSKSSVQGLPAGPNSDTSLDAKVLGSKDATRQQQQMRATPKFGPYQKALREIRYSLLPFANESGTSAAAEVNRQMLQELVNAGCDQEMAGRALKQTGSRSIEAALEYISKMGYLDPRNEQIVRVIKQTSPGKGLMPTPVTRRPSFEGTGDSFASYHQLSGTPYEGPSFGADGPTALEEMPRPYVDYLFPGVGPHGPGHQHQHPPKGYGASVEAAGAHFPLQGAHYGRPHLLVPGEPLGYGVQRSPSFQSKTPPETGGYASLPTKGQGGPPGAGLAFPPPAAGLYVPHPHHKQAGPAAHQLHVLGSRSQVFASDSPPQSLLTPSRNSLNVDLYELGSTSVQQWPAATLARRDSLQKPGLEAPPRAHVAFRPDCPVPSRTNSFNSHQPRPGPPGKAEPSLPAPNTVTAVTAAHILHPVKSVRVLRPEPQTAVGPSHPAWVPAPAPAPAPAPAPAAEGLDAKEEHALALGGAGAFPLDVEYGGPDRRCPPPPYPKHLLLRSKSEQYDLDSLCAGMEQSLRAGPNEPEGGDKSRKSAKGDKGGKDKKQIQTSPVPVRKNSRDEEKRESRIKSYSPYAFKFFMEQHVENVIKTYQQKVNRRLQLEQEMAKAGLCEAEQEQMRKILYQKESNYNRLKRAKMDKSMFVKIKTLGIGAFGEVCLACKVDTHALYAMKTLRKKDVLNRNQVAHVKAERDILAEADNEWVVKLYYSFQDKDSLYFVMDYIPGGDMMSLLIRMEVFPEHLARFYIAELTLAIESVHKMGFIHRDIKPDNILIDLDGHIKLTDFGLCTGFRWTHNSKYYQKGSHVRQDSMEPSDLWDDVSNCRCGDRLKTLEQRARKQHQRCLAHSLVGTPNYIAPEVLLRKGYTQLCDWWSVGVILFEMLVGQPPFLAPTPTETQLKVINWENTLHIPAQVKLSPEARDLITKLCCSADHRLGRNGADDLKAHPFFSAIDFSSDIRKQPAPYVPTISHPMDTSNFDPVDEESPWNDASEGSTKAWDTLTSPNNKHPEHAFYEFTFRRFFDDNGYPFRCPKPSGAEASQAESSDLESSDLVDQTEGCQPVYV
T7 sequence (Q13153 whole entry): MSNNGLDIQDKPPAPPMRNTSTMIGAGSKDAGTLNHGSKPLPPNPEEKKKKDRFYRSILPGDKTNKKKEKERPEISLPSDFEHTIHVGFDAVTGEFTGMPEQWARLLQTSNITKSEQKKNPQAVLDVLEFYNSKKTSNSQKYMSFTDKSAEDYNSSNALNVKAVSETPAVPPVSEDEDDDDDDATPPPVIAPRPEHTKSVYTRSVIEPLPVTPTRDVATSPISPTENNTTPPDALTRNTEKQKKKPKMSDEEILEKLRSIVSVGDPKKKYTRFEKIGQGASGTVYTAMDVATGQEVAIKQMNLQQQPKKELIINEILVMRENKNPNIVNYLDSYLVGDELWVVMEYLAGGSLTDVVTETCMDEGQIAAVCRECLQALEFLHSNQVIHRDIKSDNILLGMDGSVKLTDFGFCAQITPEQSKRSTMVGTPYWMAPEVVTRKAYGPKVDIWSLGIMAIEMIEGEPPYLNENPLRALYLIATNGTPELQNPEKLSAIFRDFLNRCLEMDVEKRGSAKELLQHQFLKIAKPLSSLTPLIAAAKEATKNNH
T26 sequence (P07947 whole entry): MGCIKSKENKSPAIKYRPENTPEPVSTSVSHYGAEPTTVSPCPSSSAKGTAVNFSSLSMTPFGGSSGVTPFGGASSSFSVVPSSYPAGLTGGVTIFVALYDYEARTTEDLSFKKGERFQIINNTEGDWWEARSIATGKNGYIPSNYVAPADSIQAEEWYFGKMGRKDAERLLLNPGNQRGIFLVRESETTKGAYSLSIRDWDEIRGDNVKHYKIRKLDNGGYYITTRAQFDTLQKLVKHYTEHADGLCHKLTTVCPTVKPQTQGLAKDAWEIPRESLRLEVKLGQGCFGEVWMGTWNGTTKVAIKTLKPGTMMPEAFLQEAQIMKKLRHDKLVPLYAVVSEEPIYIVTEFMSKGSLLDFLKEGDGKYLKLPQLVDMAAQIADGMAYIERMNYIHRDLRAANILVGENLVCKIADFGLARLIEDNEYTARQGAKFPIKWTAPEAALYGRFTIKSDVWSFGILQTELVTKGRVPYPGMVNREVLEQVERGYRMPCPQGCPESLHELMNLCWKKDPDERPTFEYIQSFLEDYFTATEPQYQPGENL
T3 sequence (P51451 whole entry): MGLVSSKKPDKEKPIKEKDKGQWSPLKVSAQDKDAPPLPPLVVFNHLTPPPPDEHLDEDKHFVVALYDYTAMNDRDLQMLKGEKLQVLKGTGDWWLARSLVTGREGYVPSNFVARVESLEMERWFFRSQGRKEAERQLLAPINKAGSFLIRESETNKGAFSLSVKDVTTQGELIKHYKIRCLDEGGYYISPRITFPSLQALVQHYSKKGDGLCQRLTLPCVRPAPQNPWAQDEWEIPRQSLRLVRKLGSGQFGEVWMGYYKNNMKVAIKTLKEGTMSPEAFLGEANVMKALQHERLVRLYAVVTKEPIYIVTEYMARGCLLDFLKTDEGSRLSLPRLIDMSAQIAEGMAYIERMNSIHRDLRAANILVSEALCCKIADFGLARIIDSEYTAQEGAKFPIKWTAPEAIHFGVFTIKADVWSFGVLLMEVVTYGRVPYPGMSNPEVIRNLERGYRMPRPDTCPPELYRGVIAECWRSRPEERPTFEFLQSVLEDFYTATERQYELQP
T24 sequence (P45983 whole entry): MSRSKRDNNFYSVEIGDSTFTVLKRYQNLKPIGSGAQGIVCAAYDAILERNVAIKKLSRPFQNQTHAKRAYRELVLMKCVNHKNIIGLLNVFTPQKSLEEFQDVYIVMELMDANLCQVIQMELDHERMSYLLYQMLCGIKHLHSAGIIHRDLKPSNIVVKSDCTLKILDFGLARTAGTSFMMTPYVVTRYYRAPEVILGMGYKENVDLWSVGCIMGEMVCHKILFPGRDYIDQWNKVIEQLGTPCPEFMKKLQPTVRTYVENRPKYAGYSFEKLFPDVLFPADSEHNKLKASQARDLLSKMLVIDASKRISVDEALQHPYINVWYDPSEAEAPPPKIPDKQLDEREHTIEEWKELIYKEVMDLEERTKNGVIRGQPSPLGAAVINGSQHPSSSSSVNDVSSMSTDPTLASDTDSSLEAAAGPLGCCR

Cc1cccc(-c2cnc3occ(-c4ccc(C(=O)O)c(C5CCCC5)c4)c3c2)c1 [SGC-CAMKK2-1 (YL-36)] showed a remaining binding at 1 µM [1] of 55%, a remaining binding at 1 µM [2] of 64% and a remaining binding at 1 µM [3] of 70%. It also gave a remaining binding at 1 µM [4] of 78%, a remaining binding at 1 µM [5] of 80% and a remaining binding at 1 µM [6] of 81%. For the same compound, the remaining binding at 1 µM [7] was 82%, the remaining binding at 1 µM [8] was 84% and the remaining binding at 1 µM [9] was 92%. For the same compound, the remaining binding at 1 µM [10] was 98%, the remaining binding at 1 µM [11] was 100% and the remaining binding at 1 µM [12] was 100%. It also gave a remaining binding at 1 µM [13] of 100%, a remaining binding at 1 µM [14] of 100% and a remaining binding at 1 µM [15] of 100%. The remaining binding at 1 µM [16] was 100%, the remaining binding at 1 µM [17] was 100% and the remaining binding at 1 µM [18] was 100%.
In the case of O=C(O)c1ccc(-c2coc3ncc(-c4ccccc4)cc23)cc1Cl [SGC-CAMKK2-1N (UNC-YL-83)], the remaining binding at 1 µM [19] is reported as 46%, the remaining binding at 1 µM [20] is reported as 56% and the remaining binding at 1 µM [21] is reported as 66%. It also gave a remaining binding at 1 µM [22] of 66%, a remaining binding at 1 µM [23] of 76% and a remaining binding at 1 µM [24] of 81%. The remaining binding at 1 µM [25] was 87%, the remaining binding at 1 µM [26] was 87% and the remaining binding at 1 µM [27] was 90%. The remaining binding at 1 µM [28] was 91%, the remaining binding at 1 µM [29] was 93% and the remaining binding at 1 µM [30] was 97%. It also gave a remaining binding at 1 µM [31] of 100%, a remaining binding at 1 µM [32] of 100% and a remaining binding at 1 µM [33] of 100%. The remaining binding at 1 µM [34] was 100%.
